Measured values as given in paper PMC8398779, “VEGFR-Mediated Cytotoxic Activity of Pulicaria undulata Isolated Metabolites: A Biological Evaluation and In Silico Study” (Life, 2021).
In brackets after ≈: the same amount, converted by molar mass.

Tests used:
[1] = system: breast cancer cell line (MCF-7); experiment: Sulphorhodamine B (SRB) antiproliferative assay on MCF-7; settings: Homo sapiens, MCF7, 48 h
Method: The potential cytotoxic activities of the P. undulata extract and isolated compounds against breast cancer cell line (MCF-7) were evaluated using a Sulphorhodamine-B (SRB) assay.

normal Vero cell line = experiment: Sulphorhodamine B (SRB) assay on normal Vero cell line; settings: Chlorocebus sabaeus, 48 h
VEGF-B = experiment: Serum VEGF-B by ELISA in EAC-bearing mice; assay type: in vivo, Swiss albino female mice; settings: day 21, extract 200 mg/kg PO, compounds 50 mg/kg PO, days 7-21, vs control EAC
Method: (§1) Swiss albino female mice obtained from the Egyptian Organization for Biological Products and Vaccines (Vacsera, Egypt), and weighing 25–30 g were used. The mice were kept in plastic cages with mesh floor and hardwood bedding at 25 °C temperature under normal light/dark cycle, with water and food provided ad libitum. Mice were left to acclimatize for 1 week before the experiments. They were randomly divided into nine groups (7 mice each). The first group served as the normal group and received saline. EAC cells were inoculated in all other groups. Group 2 was considered the EAC control. Group 3 received (200 mg/kg) of P. undulata extract PO three times weekly. Groups (4–9) received (50 mg/kg) of Xanthoxyline, Oleanolic acid, Stigmasterol, Salvigenin, Rhamnetin and Dihydroquercetin 4′-methyl ether, respectively, PO three times daily. All compounds were dissolved in saline.
(§2) The day of tumor inoculation was considered as day zero (0). Treatment of groups (3–9) started at the 7th day after tumor inoculation, and continued for 2 weeks until day 21. The in vivo study was in accordance with the Guide for the Care and Use of Laboratory animals. The study protocol was approved by the ethical committee of Faculty of Pharmacy, Suez Canal University (code of approval 20201907RA2)
On the 21st day of EAC cells inoculation, blood samples were collected under light ether anesthesia from the orbital sinus (retro-orbital plexus). The blood samples were left to clot for 20 min followed by separation of the serum by centrifugation at 4000 rpm for 15 min. Mice were sacrificed by cervical dislocation and tumor discs were separated, weighed and fixed in 10% neutral buffered formalin for immunohistochemical investigations.
Serum samples were stored at (−20 °C) and used for determination of the level of VEGF-B by ELISA kit (ab213897) (Abcam, Cambridge, UK) according to the manufacturer’s protocol.

CD34 = experiment: Immunohistochemistry of CD34 expression in EAC tumor tissue; assay type: in vivo, Swiss albino female mice; settings: day 21, extract 200 mg/kg PO, compounds 50 mg/kg PO, vs control EAC
Method: as §1, §2
On the 21st day of EAC cells inoculation, blood samples were collected under light ether anesthesia from the orbital sinus (retro-orbital plexus). The blood samples were left to clot for 20 min followed by separation of the serum by centrifugation at 4000 rpm for 15 min. […]
(§3) For immunohistochemical examination, the tumor discs were fixed in 10% neutral buffered formalin overnight and then embedded in paraffin. When analyzed, all paraffin-embedded tissues were sectioned at 4-μm, deparaffinized in xylene, and hydrated through graded ethyl alcohol series in decreasing concentrations (100%, 90%, 80% and 70%). […] The expression of VEGFR-2 and CD34 were assessed and percentage of stained area was measured.

VEGFR-2 = experiment: Immunohistochemistry of VEGFR-2 expression in EAC tumor tissue; assay type: in vivo, Swiss albino female mice; settings: day 21, extract 200 mg/kg PO, compounds 50 mg/kg PO, vs control EAC
Method: as §1
The day of tumor inoculation was considered as day zero (0). […]
as §3

[2] = system: Ehrlich ascites carcinoma (EAC) solid tumors; experiment: Weight of EAC solid tumors in mice; assay type: in vivo, Swiss albino female mice; settings: day 21, extract 200 mg/kg PO, compounds 50 mg/kg PO, days 7-21, vs control EAC
Method: Cells of EAC were purchased from Tumor Biology Department, National Cancer Institute, Cairo University. EAC is a murine spontaneous breast cancer that served as the original tumor from which an ascites variant was obtained. Ascetic fluid was aspired under aseptic conditions from the peritoneal cavity of tumor-bearing mice. The viability and contamination of EAC cells were tested using trypan blue dye exclusion technique. Trypan blue dye stains dead cells only. EAC cells with 90% viability or more were suspended in normal saline (2.5 × 10^6 cells/0.1 mL). The mice were inoculated intradermally with 0.l ml EAC suspension on the lower ventral side after shaving.
as §1, with “Groups (4–9) received (50 mg/kg) of Xanthoxyline, Oleanolic acid, Stigmasterol, Salvigenin, Rhamnetin and Dihydroquercetin 4′-methyl ether, respectively, PO three times daily. All compounds were dissolved in saline.” left out

Row | SMILES | IC50 [1] [µg/mL] | IC50 (normal Vero cell line) [µg/mL] | serum VEGF-B levels (VEGF-B) | CD34 expression (immunohistochemistry, stained area) (CD34) | VEGFR-2 expression (immunohistochemistry, stained area) (VEGFR-2) | tumor weight [2]
1 | COc1cc(O)c(C(C)=O)c(OC)c1 [Compound 1, 2-hydroxy-4,6-dimethoxyacetophenone] | 23.5 ± 0.09 (≈ 120 µM) | 46 ± 0.28 (≈ 234 µM) | nearly normalize VEGF-B levels |  |  | 
2 | CC[C@H](/C=C/[C@@H](C)[C@H]1CC[C@H]2[C@@H]3CC=C4C[C@@H](O)CC[C@]4(C)[C@H]3CC[C@]12C)C(C)C [Compound 2, Stigmasterol] | 47 ± 0.06 (≈ 114 µM) | > 50 | nearly normalize VEGF-B levels | poor expression of CD34 |  | 
3 | CC1(C)CC[C@]2(C(=O)O)CC[C@]3(C)C(=CC[C@@H]4[C@@]5(C)CC[C@H](O)C(C)(C)[C@@H]5CC[C@]43C)[C@@H]2C1 [Compound 3, Oleanolic acid] | 30 ± 0.14 (≈ 65.7 µM) | > 50 |  |  | significantly (p < 0.05) lowered VEGFR-2 expression | 
4 | COc1cccc2c1C(=O)c1c(O)c3c(c(O)c1C2=O)C[C@@](O)(C(=O)CO)C[C@@H]3O[C@H]1C[C@H](N)[C@H](O)[C@H](C)O1 [Doxo, doxorubicin, reference compound] |  | 24.9 ± 0.17 (≈ 45.8 µM) |  |  |  | 

More lines, main results first:

Row | IC50 [1] [µg/mL] | SMILES | IC50 (normal Vero cell line) [µg/mL] | serum VEGF-B levels (VEGF-B) | CD34 expression (immunohistochemistry, stained area) (CD34) | VEGFR-2 expression (immunohistochemistry, stained area) (VEGFR-2) | tumor weight [2]
5 | 18 ± 0.08 (≈ 54.8 µM) | COc1ccc(-c2cc(=O)c3c(O)c(OC)c(OC)cc3o2)cc1 [Compound 4, 5-hydroxy-4’,6,7-trimethoxyflavone] | > 50 | nearly normalize VEGF-B levels | poor expression of CD34 |  | 
6 | 18.5 ± 0.12 (≈ 58.5 µM) | COc1cc(O)c2c(=O)c(O)c(-c3ccc(O)c(O)c3)oc2c1 [Compound 5, 5,3’,4’-trihydroxy-7 methoxyflavonol] | > 50 | nearly normalize VEGF-B levels | least expression of CD34 | lowest expression | least tumor weights
7 | 22.5 ± 0.06 (≈ 70.7 µM) | COc1ccc(C2Oc3cc(O)cc(O)c3C(=O)C2O)cc1O (stereo not drawn) [Compound 6, dihydroquercetin 4′-methyl ether] | > 50 |  |  |  | least tumor weights
